Assay results published in ChEMBL document CHEMBL1909640, “Mode of action investigation for the antibacterial cationic anthraquinone analogs” (2011).
Active and inactive are the calls of the source. The calls are words filed in the database; no cut-off is given here.

Columns and labels:
[1] = system: Escherichia coli; assay: Induction of redox process disruption in Escherichia coli ATCC 25922 at 4 ug/mL after 2 hrs by CTC dye based assay; format: functional, organism-based
[2] = system: Staphylococcus aureus; assay: Antibacterial activity against Staphylococcus aureus ATCC 25923 after 12 to 18 hrs by broth dilution method; format: functional
[3] = system: Escherichia coli; assay: Induction of plasma membrane disruption in Escherichia coli ATCC 25922 at 2 mg/mL after 10 mins by Sytox dye based assay; format: functional, organism-based
[4] = system: Staphylococcus aureus; assay: Induction of plasma membrane disruption in Staphylococcus aureus ATCC 25923 at 0.064 ug/mL after 2 hrs by Sytox dye based assay; format: functional, organism-based
[5] = system: Escherichia coli; assay: Induction of redox process disruption in Escherichia coli ATCC 25922 at 2 mg/mL after 2 hrs by CTC dye based assay; format: functional, organism-based
[6] = system: Escherichia coli; assay: Antibacterial activity against Escherichia coli ATCC 25922 after 12 to 18 hrs by broth dilution method; format: functional
[7] = system: Escherichia coli; assay: Induction of plasma membrane disruption in Escherichia coli ATCC 25922 a 4 ug/mL after 10 mins by Sytox dye based assay; format: functional, organism-based
[8] = system: Escherichia coli; assay: Induction of redox process disruption in Escherichia coli ATCC 25922 at 2 mg/mL after 6 hrs by CTC dye based assay; format: functional, organism-based
[9] = system: Staphylococcus aureus; assay: Induction of redox process disruption in Staphylococcus aureus ATCC 25923 at 8 ug/mL after 2 hrs by CTC dye based assay; format: functional, organism-based
[10] = system: Staphylococcus aureus; assay: Induction of plasma membrane disruption in Staphylococcus aureus ATCC 25923 at 0.064 ug/mL after 10 mins by Sytox dye based assay; format: functional, organism-based
[11] = system: Staphylococcus aureus; assay: Induction of redox process disruption in Staphylococcus aureus ATCC 25923 at 0.064 ug/mL after 2 hrs by CTC dye based assay; format: functional, organism-based
[12] = system: Staphylococcus aureus; assay: Induction of redox process disruption in Staphylococcus aureus ATCC 25923 at 8 ug/mL after 6 hrs by CTC dye based assay; format: functional, organism-based
[13] = system: Staphylococcus aureus; assay: Induction of plasma membrane disruption in Staphylococcus aureus ATCC 25923 at 8 ug/mL after 2 hrs by Sytox dye based assay; format: functional, organism-based
[14] = system: Escherichia coli; assay: Induction of plasma membrane disruption in Escherichia coli ATCC 25922 at 4 ug/mL after 2 hrs by Sytox dye based assay; format: functional, organism-based
[15] = system: Escherichia coli; assay: Induction of plasma membrane disruption in Escherichia coli ATCC 25922 at 2 mg/mL after 2 hrs by Sytox dye based assay; format: functional, organism-based
[16] = system: Staphylococcus aureus; assay: Induction of redox process disruption in Staphylococcus aureus ATCC 25923 at 0.064 ug/mL after 6 hrs by CTC dye based assay; format: functional, organism-based
[17] = system: Staphylococcus aureus; assay: Induction of plasma membrane disruption in Staphylococcus aureus ATCC 25923 at 8 ug/mL after 10 mins by Sytox dye based assay; format: functional, organism-based
[18] = system: Escherichia coli; assay: Induction of redox process disruption in Escherichia coli ATCC 25922 at 4 ug/mL after 6 hrs by CTC dye based assay; format: functional, organism-based

Compound	Activity [1]	MIC [2] [µg/mL]	Activity [3]	Activity [4]	Activity [5]	MIC [6] [µg/mL]	Activity [7]	Activity [8]	Activity [9]	Activity [10]	Activity [11]	Activity [12]	Activity [13]	Activity [14]	Activity [15]	Activity [16]	Activity [17]	Activity [18]
CCCCCCCCCn1n[n+](C)c2c1C(=O)c1ccccc1C2=O.[Cl-]	inactive	0.032	Active	inactive	Active	64	inactive	Active	Active	inactive	inactive	Active	inactive	inactive	Active	inactive	inactive	inactive
CCCCCCCCn1n[n+](CC)c2c1C(=O)c1ccccc1C2=O.[Cl-]	inactive	0.25	Active	inactive	Active	≥ 250	inactive	Active	Active	inactive	inactive	Active	inactive	inactive	Active	inactive	inactive	inactive
CCCCCCCCCCCCCCCCn1n[n+](C)c2c1C(=O)c1ccccc1C2=O.[Cl-]	inactive	0.25	Active	inactive	Active	≥ 250	inactive	Active	Active	inactive	inactive	Active	inactive	inactive	Active	inactive	inactive	inactive
Hexadecyltrimethylammonium bromide			Active												Active			
CCCCCCCCCCCn1n[n+](C)c2c1C(=O)c1ccccc1C2=O.[Cl-]	inactive	0.25	Active	inactive	Active	32	inactive	Active	Active	inactive	inactive	Active	inactive	inactive	Active	inactive	inactive	inactive
CCCCCCCCCCCCn1n[n+](C)c2c1C(=O)c1ccccc1C2=O.[Cl-]	inactive	0.064	Active	inactive	Active	16	inactive	Active	Active	inactive	inactive	Active	inactive	inactive	Active	inactive	inactive	inactive
CCCCCCCCn1n[n+](C)c2c1C(=O)c1ccccc1C2=O.[Cl-]	inactive	0.032	Active	inactive	Active	16	inactive	Active	Active	inactive	inactive	Active	inactive	inactive	Active	inactive	inactive	inactive
CCCCCCCCCCn1n[n+](C)c2c1C(=O)c1ccccc1C2=O.[Cl-]	inactive	0.032	Active	inactive	Active	32	inactive	Active	Active	inactive	inactive	Active	inactive	inactive	Active	inactive	inactive	inactive
